According to patent publication US7507547B2, “Screening assays for antioxidants and antiproliferative compounds” (University of Massachusetts, priority 2004, dated 2009):
Square brackets hold non-standard residues; d marks the D form. Peptide text beside a SMILES is read from it. * marks the point of attachment. pGlu = O=C1CC[C@@H](C(=O)O)N1; X1 = O=C(Cc1ccc(O)c(I)c1)*; Nle = CCCC[C@H](N)C(=O)O

What was measured:
[1] = target: T1, vasopressin (V1a) receptor (Homo sapiens, UniProt P37288); assay: ^125I-HOLVA binding to PC3 cells
T1 construct: endogenous in cells; host or cells: PC3 cells (ATCC)

bombesin receptor = target: T2, bombesin receptor (Homo sapiens, UniProt P30550); assay: ^125I-[Nle14]-bombesin binding to PC3 cells
T2 construct: endogenous in cells; host or cells: PC3 cells (ATCC)

[2] = tested on: IP formation in PC3 cells; assay: IP formation in PC3 cells in response to ionomycin; assay type: cell-based
Procedure: Ca^2+-ionophore (ionomycin) stimulated IP formation, reproducing ≅63% of the NT response. […] When added 2 minutes after a maximal dose of NT (30 nM), low doses of ionomycin (2-10 μM) enhanced the NT response. […] In contrast, a maximal dose of ionomycin gave less than additive enhancement of the NT response.

[3] = tested on: NT-induced inositol phosphate (IP) formation in PC3 cells; assay: NT-induced IP formation in PC3 cells; assay type: cell-based; conditions: Homo sapiens, PC-3; [agent] giving 50% decrease in IP formation
NTR1 = target: T3, NTR1 (Homo sapiens, UniProt P30989); assay: ^125I-NT binding to PC3 cells; conditions: for NT Binding Assay: ability to enhance NT binding in PC3 cells; for Efficacy for altering NT binding to NTR: flavonoids
T3 construct: endogenous in cells; host or cells: PC3 cells (ATCC)

[4] = set-up: key: +: All of the compounds listed in Table 12 were anticancerous; conditions: from anticancer literature; cited from earlier work
PC3 cells = assay: NT-induced proliferation of PC3 cells (^3H-thymidine); assay type: cell-based; conditions: for IC50: Homo sapiens, PC-3, 24 hours, 10 nM NT, read-out: IC50 for inhibition of NT-induced proliferation
ERK = assay: NT-induced ERK activation in PC3 cells (western blot); assay type: cell-based; conditions: for IC50: Homo sapiens, PC-3, 0.05 h, 3 minutes, 10 nM NT
Procedure: Anticancer activity was assessed using methods from Hassan et al., Regul. […] Western blotting was used to assess activation of growth pathways. In particular we measured the activation of a MAP-kinase called ERK using antibodies specific for the phosphorylated form. Serum was withdrawn for 24 hours from 80% confluent PC3 cells in 60 mm dishes. Cells were washed in Locke, then exposed for 3 minutes to 10 nM NT as stimulus. Reactions were stopped on ice, and cells were washed in buffer containing phosphatase and protease inhibitors. Cells were extracted into 2×SDS buffer, and proteins were separated by SDS-PAGE using 10% minigels. Proteins were electroeluted onto PVDF, and blots were blocked in non-fat dry milk in TTBS buffer. Blots were incubated with the primary antibody in blocking buffer for 18 hours at 4° C., washed in TTBS, then incubated with horseradish peroxidase-linked secondary antibody for 1 hour at 20° C. Enhanced chemoluminescence was performed according to manufacturer (Santa Cruz) and autoradiographs were scanned for computerized densitometric analysis. The results for the phospho-ERK were normalized by stripping the blots and reprobing with antibodies that measured the total ERK concentration.

[5] = tested on: cancers from skin, pancreas, liver and breast; conditions: Huang et al., 1999; cited from earlier work
protein kinase C = conditions: Ferriola et al., 1989; cited from earlier work
melanoma cell growth = conditions: Casagrande and Darbon, 2001; cited from earlier work
[6] = target: neurotensin-2 receptor (NTR2) (Homo sapiens, UniProt O95665); conditions: read-out: binding affinity; cited from earlier work
[7] = target: neurotensin-1 receptor (NTR1) (Homo sapiens, UniProt P30989); conditions: read-out: binding affinity; cited from earlier work
[8] = 10^5 cpm ^125I-ligand, PC3 cells

T3 sequence (P30989 whole entry): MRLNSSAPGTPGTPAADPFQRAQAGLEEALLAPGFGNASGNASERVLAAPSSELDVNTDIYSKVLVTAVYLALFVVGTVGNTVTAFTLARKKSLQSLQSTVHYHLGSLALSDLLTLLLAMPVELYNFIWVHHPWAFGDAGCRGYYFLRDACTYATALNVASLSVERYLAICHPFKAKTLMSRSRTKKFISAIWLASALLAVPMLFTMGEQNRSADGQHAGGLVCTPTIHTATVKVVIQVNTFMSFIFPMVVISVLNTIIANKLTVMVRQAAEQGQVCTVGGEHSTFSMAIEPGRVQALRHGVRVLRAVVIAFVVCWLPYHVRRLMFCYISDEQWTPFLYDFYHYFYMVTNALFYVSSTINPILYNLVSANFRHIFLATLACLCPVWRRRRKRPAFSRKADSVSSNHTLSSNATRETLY
T2 sequence (P30550 whole entry): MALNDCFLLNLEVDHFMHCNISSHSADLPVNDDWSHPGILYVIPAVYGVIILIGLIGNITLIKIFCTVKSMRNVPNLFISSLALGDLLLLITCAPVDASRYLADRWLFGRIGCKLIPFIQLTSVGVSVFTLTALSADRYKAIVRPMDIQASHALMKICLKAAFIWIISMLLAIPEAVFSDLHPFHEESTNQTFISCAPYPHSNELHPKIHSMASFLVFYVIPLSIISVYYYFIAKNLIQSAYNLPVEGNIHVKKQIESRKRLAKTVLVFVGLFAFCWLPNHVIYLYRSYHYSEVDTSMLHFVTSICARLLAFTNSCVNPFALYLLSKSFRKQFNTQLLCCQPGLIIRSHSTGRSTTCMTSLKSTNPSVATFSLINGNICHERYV
T1 sequence (P37288 whole entry): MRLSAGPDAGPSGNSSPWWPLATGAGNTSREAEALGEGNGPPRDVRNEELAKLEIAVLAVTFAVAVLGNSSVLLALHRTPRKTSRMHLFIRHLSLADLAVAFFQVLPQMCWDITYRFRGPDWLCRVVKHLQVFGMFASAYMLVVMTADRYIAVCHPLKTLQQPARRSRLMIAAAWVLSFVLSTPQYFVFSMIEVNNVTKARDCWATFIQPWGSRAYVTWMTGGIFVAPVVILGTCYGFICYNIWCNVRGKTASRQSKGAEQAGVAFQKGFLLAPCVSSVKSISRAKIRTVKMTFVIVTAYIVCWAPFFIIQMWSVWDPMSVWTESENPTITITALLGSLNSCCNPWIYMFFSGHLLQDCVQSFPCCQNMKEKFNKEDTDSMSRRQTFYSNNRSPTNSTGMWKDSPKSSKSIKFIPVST
neurotensin-1 receptor (NTR1), sequence (P30989 whole entry, species assumed): as the sequence (P30989 whole entry) above
neurotensin-2 receptor (NTR2), sequence (O95665 whole entry, species assumed): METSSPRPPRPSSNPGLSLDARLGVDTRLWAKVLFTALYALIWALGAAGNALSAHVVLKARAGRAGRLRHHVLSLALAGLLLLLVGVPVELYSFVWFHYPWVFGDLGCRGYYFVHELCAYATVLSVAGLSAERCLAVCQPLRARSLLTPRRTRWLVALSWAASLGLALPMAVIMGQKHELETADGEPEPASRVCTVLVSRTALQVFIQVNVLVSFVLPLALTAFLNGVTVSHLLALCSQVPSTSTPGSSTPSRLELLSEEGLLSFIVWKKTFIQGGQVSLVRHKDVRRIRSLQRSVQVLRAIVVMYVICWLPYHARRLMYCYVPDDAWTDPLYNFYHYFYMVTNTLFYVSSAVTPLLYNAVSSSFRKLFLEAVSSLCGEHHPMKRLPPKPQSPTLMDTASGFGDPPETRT

CCOc1ccc(C[C@@H](NC(=O)Cc2ccc(O)c(I)c2)C(=O)N[C@@H](Cc2ccccc2)C(=O)N[C@@H](CCC(N)=O)C(=O)N[C@@H](CC(N)=O)C(=O)N[C@@H](CCCCN)C(=O)N2CCC[C@H]2C(=O)N[C@@H](CCCNC(=N)N)C(N)=O)cc1 [^125I-HOLVA, des-Gly-[Phaal, D-Tyr(Et)2, Lys6, Arg8]-vasopressin] (X1-[dY](Et)FQNKPR-NH2; N-terminus and C-terminus assumed)
Specific Binding (% of total) [1, 8]: 77 % of total
Bmax ([1]; Scatchard analysis): 156 ± 12 fmol/mg

CCCC[C@H](NC(=O)[C@H](CC(C)C)NC(=O)[C@H](Cc1c[nH]cn1)NC(=O)CNC(=O)[C@@H](NC(=O)[C@H](C)NC(=O)[C@H](Cc1c[nH]c2ccccc12)NC(=O)[C@H](CCC(N)=O)NC(=O)[C@H](CC(N)=O)NC(=O)CNC(=O)[C@H](Cc1ccc(O)cc1)NC(=O)[C@H](CCCNC(=N)N)NC(=O)[C@H](CCC(N)=O)NC(=O)[C@@H]1CCC(=O)N1)C(C)C)C(N)=O [^125I-[Nle^14]-bombesin] ([pGlu]QRYGNQWAVGHL[Nle]-NH2; C-terminus assumed)
Specific Binding (% of total) (bombesin receptor; [8]): 95 % of total
Bmax (bombesin receptor; Scatchard analysis): 1016 ± 64 fmol/mg

C[C@H](CCC(=O)O)C[C@H](C)C[C@H](C)C(=O)/C=C(\O)[C@H](C)C[C@H](C)C/C=C/[C@@H](C)[C@@H](O)[C@@H](C)[C@@H](O)C[C@@H]1CC[C@@](C)([C@H]2CC[C@@](C)([C@@H](C)O)O2)O1 [ionomycin]
IP formation as share of the NT response [2]: ~63%

O=c1cc(-c2ccc(O)c(O)c2)oc2cc(O)cc(O)c12 [luteolin]
IC50 [3]: 38 µM
EC50 (NTR1; [agent] giving 75% increase in NT binding): 40 µM
NT Binding Assay (NTR1): +
Anti-cancer [4]: +

COC(=O)C1=C(C)NC(C)=C(C(=O)OCCN(C)Cc2ccccc2)C1c1cccc([N+](=O)[O-])c1 (stereo not drawn) [nicardipine]
IC50 [3]: 3 µM
IC50 (PC3 cells): 0.1 µM

O=c1c(O)c(-c2ccc(O)c(O)c2)oc2cc(O)cc(O)c12 [quercetin]
IC50 (ERK): 25 µM
NT Binding Assay (NTR1): +
Anti-cancer [4]: +
IC50 (PC3 cells): 0.5 µM

Oc1ccc(C=Cc2cc(O)cc(O)c2)cc1 [resveratrol]
IC50 (ERK): 50 µM
IC50 [3]: 48 µM
IC50 (PC3 cells): 3 µM

C(=Cc1ccccc1)c1ccccc1 [stilbene]
Effect on NT-induced ERK activation (ERK): inactive
Effect on NT-induced cell proliferation (PC3 cells): inactive

O=C1c2c(O)cc(O)cc2O[C@H](c2ccc(O)c(O)c2)[C@H]1O [taxifolin]
Effect on NT-induced ERK activation (ERK): inactive
Efficacy to inhibit growth of cancers from skin, pancreas, liver and breast [5]: inactive
Efficacy to inhibit protein kinase C (protein kinase C): inactive
Efficacy for altering NT binding to NTR (NTR1): inactive
Efficacy to inhibit melanoma cell growth (melanoma cell growth): inactive
Effect on NT-induced cell proliferation (PC3 cells): inactive

Mevinolin
NT Binding Assay (NTR1): +
Anti-cancer [4]: +

Trp 11 NT(1-13): peptide identical to NT (1-13) except for substitution of tryptophan for tyrosine at amino acid 11 (QLYENKPRRPWIL; Neurotensin; UniProt P30990 151-163, looked up, variant Y11W)
Kd [6]: ~0.027 µM
Kd [7]: ~0.001 µM

bisindole maleimide
NT Binding Assay (NTR1): +
Anti-cancer [4]: +

catechin
Efficacy to inhibit growth of cancers from skin, pancreas, liver and breast [5]: inactive
Efficacy to inhibit protein kinase C (protein kinase C): inactive
Efficacy for altering NT binding to NTR (NTR1): inactive
Efficacy to inhibit melanoma cell growth (melanoma cell growth): inactive
